The values that follow come from publication PMC3351969 (European Journal of Medical Research, 2009).

Data set [1] relates to cytochrome p450 3A4 (CYP3A4). The experiment in a line: monoethylglycinexylidide. Format: in vivo, human.
Data set [2] can be described thus: indocyanine green clearance. It counts as in vivo, human. Conditions: HIV-patients, before and 6 months after initiation of HAART.

As for `CCNCC(=O)Nc1c(C)cccc1C` [MEGX, monoethylglycinexylidide], the MEGX test in data set [1] (HIV-patients treated with various ART combinations, p = 0.23 vs healthy controls) turned out to be 49.9 ± 25.48 µg/L; in data set [1] (healthy controls without medication), 66.29 ± 38.55 µg/L. Regarding `CC1(C)C(/C=C/C=C/C=C/C=C2\N(CCCCS(=O)(=O)O)c3ccc4ccccc4c3C2(C)C)=[N+](CCCCS(=O)(=O)[O-])c2ccc3ccccc3c21` [indocyanine green], the “indocyanine green clearance in relation to anti-retroviral regimens” value in data set [2] is given as “no correlation could be found”.
